The record followed here is patent US10487116B2, “Immunotherapy against several tumors, such as lung cancer, including NSCLC” (IMMATICS BIOTECHNOLOGIES GMBH, priority 2013, dated 2019).

Like-named read-outs stand apart in the source and are kept apart here.

The assay has as its system CD8+ T cells. The assay is described as follows: In vitro T-cell priming assay (aAPCs loaded with peptide/MHC and anti-CD28, pMHC multimer readout). Type of assay: cell-based, human. Particulars: for Wells: positive wells. From the text:
In order to obtain information regarding the immunogenicity of the TUMAPs of the present invention, we performed investigations using an in vitro T-cell priming assay based on repeated stimulations of CD8+ T cells with artificial antigen presenting cells (aAPCs) loaded with peptide/MHC complexes and anti-CD28 antibody.
In order to perform in vitro stimulations by artificial antigen presenting cells loaded with peptide-MHC complex (pMHC) and anti-CD28 antibody, we first isolated CD8+ T cells from fresh HLA-A*02 leukapheresis products via positive selection using CD8 microbeads (Miltenyi Biotec, Bergisch-Gladbach, Germany) of healthy donors obtained from the Transfusion Medicine Tuebingen, Germany, after informed consent.
Isolated CD8+ lymphocytes or PBMCs were incubated until use in T-cell medium (TCM) consisting of RPMI-Glutamax (Invitrogen, Karlsruhe, Germany) supplemented with 10% heat inactivated human AB serum (PAN-Biotech, Aidenbach, Germany), 100 U/ml Penicillin/100 μg/ml Streptomycin (Cambrex, Cologne, Germany), 1 mM sodium pyruvate (CC Pro, Oberdorla, Germany), 20 μg/ml Gentamycin (Cambrex). 2.5 ng/ml IL-7 (PromoCell, Heidelberg, Germany) and 10 U/ml IL-2 (Novartis Pharma, Nurnberg, Germany) were also added to the TCM at this step.
Generation of pMHC/anti-CD28 coated beads, T-cell stimulations and readout was performed in a highly defined in vitro system using four different pMHC molecules per stimulation condition and 8 different pMHC molecules per readout condition.
All pMHC complexes used for aAPC loading and cytometric readout were derived from UV-induced MHC ligand exchange (Rodenko et al., 2006) with minor modifications. In order to determine the amount of pMHC monomer obtained by exchange we performed streptavidin-based sandwich ELISAs according to (Rodenko et al., 2006).
The purified co-stimulatory mouse IgG2a anti human CD28 Ab 9.3 (Jung et al., 1987) was chemically biotinylated using Sulfo-N-hydroxysuccinimidobiotin as recommended by the manufacturer (Perbio, Bonn, Germany). Beads used were 5.6 μm diameter streptavidin coated polystyrene particles (Bangs Laboratories, Ill., USA).
pMHC used for positive and negative control stimulations were A*0201/MLA-001 (peptide […] from modified Melan-A/MART-1) and A*0201/DDX5-001 ([…] from DDX5), respectively.
800.000 beads/200 μl were coated in 96-well plates in the presence of 4×12.5 ng different biotin-pMHC, washed and 600 ng biotin anti-CD28 were added subsequently in a volume of 200 μl. Stimulations were initiated in 96-well plates by co-incubating 1×10^6 CD8+ T cells with 2×10^5 washed coated beads in 200 μl TCM supplemented with 5 ng/ml IL-12 (PromoCell) for 3-4 days at 37° C. Half of the medium was then exchanged by fresh TCM supplemented with 80 U/ml IL-2 and incubating was continued for 3-4 days at 37° C. This stimulation cycle was performed for a total of three times. For the pMHC multimer readout using 8 different pMHC molecules per condition, a two-dimensional combinatorial coding approach was used as previously described (Andersen et al., 2012) with minor modifications encompassing coupling to 5 different fluorochromes. Finally, multimeric analyses were performed by staining the cells with Live/dead near IR dye (Invitrogen, Karlsruhe, Germany), CD8-FITC antibody clone SK1 (BD, Heidelberg, Germany) and fluorescent pMHC multimers. For analysis, a BD LSRII SORP cytometer equipped with appropriate lasers and filters was used. Peptide specific cells were calculated as percentage of total CD8+ cells. Evaluation of multimeric analysis was done using the FlowJo software (Tree Star, Oreg., USA). In vitro priming of specific multimer+CD8+ lymphocytes was detected by comparing to negative control stimulations.

[1] abbreviates: in vitro immunogenicity, trifluoro-acetate salts of the peptides.
Setting [2] is: in vitro immunogenicity, responding healthy donors, trifluoro-acetate salts of the peptides.

As to “7 (TLWYRAPEV; listed as Homo sapiens) [compound 7]”, the Wells entry under setting [1] was “++ (20%-49% = ++)”. The Donors result under setting [2] is on record as “++++ (>70 = ++++)”.
For “75 (ALYDSVILL; listed as Homo sapiens) [compound 75]” the same measures were “+ (<20% = +)” and “++ (20%-49% = ++)”.
“88 (SLLESNKDLLL; listed as Homo sapiens) [compound 88]”: the Wells entry under setting [1] was “+ (<20% = +)”. Also, the Donors entry under setting [2] is “++ (20%-49% = ++)”.
For “19 (AVVEFLTSV; listed as Homo sapiens) [compound 19]” the same measures were “+ (<20% = +)” and “++ (20%-49% = ++)”.
For “55 (SLADFMQEV; listed as Homo sapiens) [compound 55]” the same measures were “+ (<20% = +)” and “++ (20%-49% = ++)”.
In the case of “33 (ALLRTVVSV; listed as Homo sapiens) [compound 33]”, the Wells result under setting [1] is listed as “+ (<20% = +)”. For the same substance, under setting [2], the Donors entry is recorded as “+++ (50%-70%, +++)”.
For “68 (YVYQNNIYL; listed as Homo sapiens) [compound 68]” the same measures were “+ (<20% = +)” and “+ (<20% = +)”.
For “54 (KLVEFDFLGA; listed as Homo sapiens) [compound 54]”, in that order: “+ (<20% = +)” and “++ (20%-49% = ++)”.
As to “47 (GVLENIFGV; listed as Homo sapiens) [compound 47]”, under setting [1], the Wells entry is “+ (<20% = +)”. For the same substance, under setting [2], the Donors result is recorded as “++ (20%-49% = ++)”.
For the substance “79 (SLAPAGVIRV; listed as Homo sapiens) [compound 79]”, the Wells result under setting [1] was “+ (<20% = +)”. The Donors entry under setting [2] is given as “++++ (>70 = ++++)”.
For “53 (YLPHAPPFA; listed as Homo sapiens) [compound 53]” the same measures were “++ (20%-49% = ++)” and “++ (20%-49% = ++)”.
Take “74 (SLLAQNTSWLL; listed as Homo sapiens) [compound 74]”: under setting [1], the Wells entry is “+ (<20% = +)”. The Donors result under setting [2] was “+++ (50%-70%, +++)”.
Take “70 (KILEDVVGV; listed as Homo sapiens) [compound 70]”: the Wells entry under setting [1] is recorded as “+ (<20% = +)”. In addition, the Donors result under setting [2] was “+++ (50%-70%, +++)”.
For “63 (SLAGDVALQQL; listed as Homo sapiens) [compound 63]”, the Wells entry under setting [1] is on record as “+ (<20% = +)”. Besides, the Donors entry under setting [2] is “++ (20%-49% = ++)”.
For “8 (SMSGYDQVL; listed as Homo sapiens) [compound 8]” the same measures were “+ (<20% = +)” and “++ (20%-49% = ++)”.
For “73 (FLLDGSANV; listed as Homo sapiens) [compound 73]”, the Wells result under setting [1] is listed as “+ (<20% = +)”. For the same substance, the Donors entry under setting [2] was “++ (20%-49% = ++)”.
As for “11 (VLLPVEVATHYL; listed as Homo sapiens) [compound 11]”, the Donors came to 100%. For the same substance, under setting [1], the Wells result is “++ (20%-49% = ++)”. Moreover, under setting [2], the Donors result is on record as “++++ (>70 = ++++)”.
With “87 (RVLPPSALQSV; listed as Homo sapiens) [compound 87]”, the Wells result under setting [1] is recorded as “+ (<20% = +)”. The Donors result under setting [2] was “+++ (50%-70%, +++)”.
For “52 (ALLERGYSL; listed as Homo sapiens) [compound 52]” the same measures were “+ (<20% = +)” and “+ (<20% = +)”.
Consider “43 (ALFPHLLQPV; listed as Homo sapiens) [compound 43]”, for which the Wells result under setting [1] is “+ (<20% = +)”. Also, under setting [2], the Donors result is “+++ (50%-70%, +++)”.
On to “45 (AIMGFIGFFV; listed as Homo sapiens) [compound 45]”, for which the Wells entry under setting [1] was “+ (<20% = +)”. Under setting [2], the Donors entry is “+ (<20% = +)”.
Turning to “2 (KIQEMQHFL; listed as Homo sapiens) [compound 2]”, the Wells result under setting [1] is on record as “+ (<20% = +)”. Moreover, the Donors result under setting [2] was “++ (20%-49% = ++)”.
Regarding “56 (SLYKGLLSV; listed as Homo sapiens) [compound 56]”, the Donors stood at 100%. For the same substance, under setting [1], the Wells result is “++ (20%-49% = ++)”. Also, under setting [2], the Donors result is “++++ (>70 = ++++)”.
As for “78 (SLYDNQITTV; listed as Homo sapiens) [compound 78]”, the Wells result under setting [1] was “++ (20%-49% = ++)”. Besides, the Donors entry under setting [2] is given as “++ (20%-49% = ++)”.
Turning to “22 (FLIPIYHQV; listed as Homo sapiens) [compound 22]”, under setting [1], the Wells entry is given as “+ (<20% = +)”. Further, the Donors result under setting [2] is reported as “+++ (50%-70%, +++)”.
For “81 (ALYGRLEVV; listed as Homo sapiens) [compound 81]” the same measures were “+ (<20% = +)” and “++ (20%-49% = ++)”.
For “10 (VLSVVEVTL; listed as Homo sapiens) [compound 10]”, in that order: “+ (<20% = +)” and “++ (20%-49% = ++)”.
On to “92 (HLLEDIAHV; listed as Homo sapiens) [compound 92]”, for which the Wells result under setting [1] is “+ (<20% = +)”. Moreover, the Donors entry under setting [2] was “++ (20%-49% = ++)”.
For “15 (KLAVALLAA; listed as Homo sapiens) [compound 15]”, in that order: “++ (20%-49% = ++)” and “++ (20%-49% = ++)”.
As for “18 (TLYPHTSQV; listed as Homo sapiens) [compound 18]”, the Wells entry under setting [1] is reported as “+ (<20% = +)”. Also, the Donors result under setting [2] is “+++ (50%-70%, +++)”.
For “39 (RLLDSVSRL; listed as Homo sapiens) [compound 39]” the same measures were “+ (<20% = +)” and “++ (20%-49% = ++)”.
For “65 (KVLEILHRV; listed as Homo sapiens) [compound 65]”, the Wells result under setting [1] is given as “++ (20%-49% = ++)”. The Donors result under setting [2] is given as “+++ (50%-70%, +++)”.
Take “1 (ILFEINPKL; listed as Homo sapiens) [compound 1]”: under setting [1], the Wells result was “+ (<20% = +)”. In addition, under setting [2], the Donors result is reported as “++ (20%-49% = ++)”.
“64 (AMLAVLHTV; listed as Homo sapiens) [compound 64]”: the Wells entry under setting [1] is recorded as “+ (<20% = +)”. For the same substance, the Donors result under setting [2] is listed as “+++ (50%-70%, +++)”.
In the case of “32 (KLSWDLIYL; listed as Homo sapiens) [compound 32]”, the Wells entry under setting [1] is reported as “+ (<20% = +)”. Under setting [2], the Donors result is “+++ (50%-70%, +++)”.
For “40 (GLTDNIHLV; listed as Homo sapiens) [compound 40]”, in that order: “+ (<20% = +)” and “++ (20%-49% = ++)”.
For “57 (GLAEDIDKGEV; listed as Homo sapiens) [compound 57]”, in that order: “+ (<20% = +)” and “++ (20%-49% = ++)”.
For “9 (ALMDKEGLTAL; listed as Homo sapiens) [compound 9]” the same measures were “+ (<20% = +)” and “+ (<20% = +)”.
Take “37 (VLAPLFVYL; listed as Homo sapiens) [compound 37]”: the Donors came out at 100%. For the same substance, under setting [1], the Wells entry was “+ (<20% = +)”. Further, the Donors result under setting [2] is listed as “++++ (>70 = ++++)”.
“72 (KLLTEVHAA; listed as Homo sapiens) [compound 72]”: the Wells result under setting [1] was “+ (<20% = +)”. In addition, under setting [2], the Donors result is listed as “+++ (50%-70%, +++)”.
For “21 (AILDTLYEV; listed as Homo sapiens) [compound 21]” the same measures were “++ (20%-49% = ++)” and “++ (20%-49% = ++)”.
As for “85 (KIVDFSYSV; listed as Homo sapiens) [compound 85]”, the Wells result under setting [1] is reported as “++ (20%-49% = ++)”. Further, the Donors entry under setting [2] is on record as “++++ (>70 = ++++)”.
